Source: PMC9454393 (Scientific Reports, 2022)
Like-named read-outs stand apart in the source and are kept apart here.

Tests used:
[1] = biological target: T1, AChE (Homo sapiens, UniProt P22303); experiment: biochemical; conditions: mean ± SD
Procedure: (§1) A previously described modified protocol of Ellman's spectrophotometric assay in clear flat-bottomed, 96-well plates, was used. […] The absorbance of each well was measured at 415 nm using a microplate reader. […]

[2] = biological target: BChE (Homo sapiens, UniProt P06276); experiment: BChE inhibition, modified Ellman's spectrophotometric assay; format: biochemical; conditions: mean ± SD
Procedure: as §1

[3] = biological target: T1, AChE; conditions: cited from earlier work
[4] = 50 µM compound, NA = not active

T1 sequence (P22303 32-614): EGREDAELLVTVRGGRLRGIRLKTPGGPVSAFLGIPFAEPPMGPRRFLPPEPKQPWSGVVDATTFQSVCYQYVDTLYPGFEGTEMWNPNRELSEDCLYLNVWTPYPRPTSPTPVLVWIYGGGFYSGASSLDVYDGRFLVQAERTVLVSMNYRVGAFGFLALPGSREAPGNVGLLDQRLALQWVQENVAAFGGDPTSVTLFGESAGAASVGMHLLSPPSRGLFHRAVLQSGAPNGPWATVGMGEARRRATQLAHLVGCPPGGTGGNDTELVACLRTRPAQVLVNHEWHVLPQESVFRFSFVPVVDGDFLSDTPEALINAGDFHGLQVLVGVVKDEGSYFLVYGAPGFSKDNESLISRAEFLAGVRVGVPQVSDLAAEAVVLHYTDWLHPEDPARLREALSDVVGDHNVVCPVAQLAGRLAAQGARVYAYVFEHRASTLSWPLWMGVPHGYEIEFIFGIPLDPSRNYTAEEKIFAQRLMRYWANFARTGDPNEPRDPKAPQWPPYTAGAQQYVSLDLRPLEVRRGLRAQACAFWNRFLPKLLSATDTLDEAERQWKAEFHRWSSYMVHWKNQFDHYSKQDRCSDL
Sequence of BChE (P06276 29-602): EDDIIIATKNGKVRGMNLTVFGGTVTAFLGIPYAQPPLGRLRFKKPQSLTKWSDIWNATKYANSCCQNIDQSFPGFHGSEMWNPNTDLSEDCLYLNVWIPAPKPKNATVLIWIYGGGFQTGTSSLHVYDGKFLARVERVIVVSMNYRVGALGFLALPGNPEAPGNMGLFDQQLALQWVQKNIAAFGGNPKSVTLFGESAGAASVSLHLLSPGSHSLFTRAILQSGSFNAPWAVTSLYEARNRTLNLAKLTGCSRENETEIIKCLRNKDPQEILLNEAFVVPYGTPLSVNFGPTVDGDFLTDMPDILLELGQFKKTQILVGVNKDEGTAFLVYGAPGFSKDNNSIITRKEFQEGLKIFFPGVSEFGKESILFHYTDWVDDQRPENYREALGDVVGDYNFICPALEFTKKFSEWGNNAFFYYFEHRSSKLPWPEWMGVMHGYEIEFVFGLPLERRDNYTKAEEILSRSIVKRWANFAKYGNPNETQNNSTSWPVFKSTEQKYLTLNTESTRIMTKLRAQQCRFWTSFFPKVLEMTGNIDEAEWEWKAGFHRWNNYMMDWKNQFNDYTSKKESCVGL

Row | Compound | inhibition at 50 µM [1, 4] [%] | inhibition at 50 µM [2, 4] [%] | further results
1 | Cc1ccc(-c2c(C(C#N)C(N)=O)c([N+](=O)[O-])c3n2CCCN3)cc1 (stereo not shown) [Compound 4a, 2-cyano-2-(8-nitro-6-(p-tolyl)-1,2,3,4-tetrahydropyrrolo[1,2-a]pyrimidin-7-yl)acetamide] | 14.7 ± 2.26 | 26.1 ± 4.09 | 
2 | COc1ccc(-n2c(SC)c([N+](=O)[O-])c(C(C#N)C(N)=O)c2-c2ccc(Cl)cc2)cc1 (stereo not shown) [Compound 4aa, 2-(2-(4-chlorophenyl)-1-(4-methoxyphenyl)-5-(methylthio)-4-nitro-1H-pyrrol-3-yl)-2-cyanoacetamide] | 48.6 ± 2.77 | 22.3 ± 3.91 | IC50 [1]: 54.6 ± 5.71 µM
3 | CCOC(=O)C(C(N)=O)c1c([N+](=O)[O-])c(SC)n(-c2ccc(OC)cc2)c1-c1ccc(Cl)cc1 (stereo not shown) [Compound 4ac, Ethyl 3-amino-2-(2-(4-chlorophenyl)-1-(4-methoxyphenyl)-5-(methylthio)-4-nitro-1H-pyrrol-3-yl)-3-oxopropanoate] | 11.8 ± 3.92 | 33.8 ± 4.84 | 
4 | CSc1c([N+](=O)[O-])c(C(C#N)C(N)=O)c(-c2ccc(C)cc2)n1-c1ccc(O)cc1 (stereo not shown) [Compound 4ae, 2-cyano-2-(1-(4-hydroxyphenyl)-5-(methylthio)-4-nitro-2-(p-tolyl)-1H-pyrrol-3-yl)acetamide] | 52.4 ± 5.07 | 17.1 ± 3.49 | IC50 [1]: 33.1 ± 3.11 µM
5 | COC(=O)C(C(N)=O)c1c([N+](=O)[O-])c(SC)n(-c2ccc(C)cc2)c1-c1ccccc1 (stereo not shown) [Compound 4af, Methyl 3-amino-2-(5-(methylthio)-4-nitro-2-phenyl-1-(p-tolyl)-1H-pyrrol-3-yl)-3-oxopropanoate] | 24 ± 4.6 |  | 
6 | CSc1c([N+](=O)[O-])c(C(C#N)C(N)=O)c(-c2ccc(C)cc2)n1-c1ccc(C)cc1 (stereo not shown) [Compound 4ag, 2-cyano-2-(5-(methylthio)-4-nitro-1,2-di-p-tolyl-1H-pyrrol-3-yl)acetamide] | 33.3 ± 2.31 |  | 
7 | CSc1c([N+](=O)[O-])c(C(C#N)C(N)=O)c(-c2ccc(Cl)cc2)n1-c1ccc(C)cc1 (stereo not shown) [Compound 4ah, 2-(2-(4-chlorophenyl)-5-(methylthio)-4-nitro-1-(p-tolyl)-1H-pyrrol-3-yl)-2-cyanoacetamide] | 72.5 ± 3.05 |  | IC50 [1]: 4.78 ± 1.63 µM
8 | CCOC(=O)C(C(N)=O)c1c([N+](=O)[O-])c(SC)n(-c2ccc(C)cc2)c1-c1ccccc1 (stereo not shown) [Compound 4ai, Ethyl3-amino-2-(5-(methylthio)-4-nitro-2-phenyl-1-(p-tolyl)-1H-pyrrol-3-yl)-3-oxopropanoate] | 24.2 ± 2.23 |  | 
9 | COC(=O)C(C(N)=O)c1c([N+](=O)[O-])c(SC)n(-c2ccc(C)c(C)c2)c1-c1ccccc1 (stereo not shown) [Compound 4aj, Methyl3-amino-2-(1-(3,4-dimethylphenyl)-5-(methylthio)-4-nitro-2-phenyl-1H-pyrrol-3-yl)-3-oxopropanoate] | 38.9 ± 5.99 |  | 
10 | CC1(C)CNc2c([N+](=O)[O-])c(C(C#N)C(N)=O)c(-c3ccccc3)n2C1 (stereo not shown) [Compound 4b, 2-cyano-2-(3,3-dimethyl-8-nitro-6-phenyl-1,2,3,4-tetrahydropyrrolo[1,2-a]pyrimidin-7-yl)acetamide] | 52 ± 4.43 |  | IC50 [1]: 37.1 ± 3.52 µM
11 | N#CC(C(N)=O)c1c([N+](=O)[O-])c2n(c1-c1ccccc1)CCCN2 (stereo not shown) [Compound 4c, 2-cyano-2-(8-nitro-6-phenyl-1,2,3,4-tetrahydropyrrolo[1,2-a]pyrimidin-7-yl)acetamide] | 39.8 ± 3.69 |  | 
12 | CCOC(=O)C(C(N)=O)c1c([N+](=O)[O-])c2n(c1-c1ccccc1)CC(C)(C)CN2 (stereo not shown) [Compound 4d, Ethyl3-amino-2-(3,3-dimethyl-8-nitro-6-phenyl-1,2,3,4-tetrahydropyrrolo[1,2-a]pyrimidin-7-yl)-3-oxopropanoate] | 13.5 ± 1.58 | 13.5 ± 2.96 | 
13 | CC1(C)CNc2c([N+](=O)[O-])c(C(C#N)C(N)=O)c(-c3ccc(Cl)cc3)n2C1 (stereo not shown) [Compound 4e, 2-(6-(4-chlorophenyl)-3,3-dimethyl-8-nitro-1,2,3,4-tetrahydropyrrolo[1,2-a]pyrimidin-7-yl)-2-cyanoacetamide] | 57 ± 5.46 | 18.1 ± 2.89 | IC50 [1]: 36.3 ± 4.85 µM
14 | COc1cccc(-c2c(C(C#N)C(N)=O)c([N+](=O)[O-])c3n2CCCN3)c1 (stereo not shown) [Compound 4f, 2-cyano-2-(6-(3-methoxyphenyl)-8-nitro-1,2,3,4-tetrahydropyrrolo[1,2-a]pyrimidin-7-yl)acetamide] | 33.5 ± 5.19 | 17.8 ± 2.79 | 
15 | CCOC(=O)C(C(N)=O)c1c([N+](=O)[O-])c2n(c1-c1ccccc1)CCCN2 (stereo not shown) [Compound 4g, Ethyl 3-amino-2-(8-nitro-6-phenyl-1,2,3,4-tetrahydropyrrolo[1,2-a]pyrimidin-7-yl)-3-oxopropanoate] | 30.8 ± 5.17 |  | 
16 | Cc1ccc(-c2c(C(C#N)C(N)=O)c([N+](=O)[O-])c3n2CC(C)(C)CN3)cc1 (stereo not shown) [Compound 4h, 2-cyano-2-(3,3-dimethyl-8-nitro-6-(p-tolyl)-1,2,3,4-tetrahydropyrrolo[1,2-a]pyrimidin-7-yl)acetamide] | 45.8 ± 2.81 |  | IC50 [1]: 67.6 ± 7.54 µM
17 | N#CC(C(N)=O)c1c([N+](=O)[O-])c2n(c1-c1ccc(Cl)cc1)CCCN2 (stereo not shown) [Compound 4i, 2-(6-(4-chlorophenyl)-8-nitro-1,2,3,4-tetrahydropyrrolo[1,2-a]pyrimidin-7-yl)-2-cyanoacetamide] | 33.9 ± 6.87 |  | 

Row | Compound | inhibition at 50 µM [1, 4] [%] | inhibition at 50 µM [2, 4] [%] | further results
18 | COC(=O)C(C(N)=O)c1c([N+](=O)[O-])c2n(c1-c1ccc(C)cc1)CC(C)(C)CN2 (stereo not shown) [Compound 4j, Methyl3-amino-2-(3,3-dimethyl-8-nitro-6-(p-tolyl)-1,2,3,4-tetrahydropyrrolo[1,2-a]pyrimidin-7-yl)-3-oxopropanoate] | 14.9 ± 2.45 | 28.2 ± 3.83 | 
19 | COC(=O)C(C(N)=O)c1c([N+](=O)[O-])c2n(c1-c1ccc(Cl)cc1)CC(C)(C)CN2 (stereo not shown) [Compound 4k, Methyl3-amino-2-(6-(4-chlorophenyl)-3,3-dimethyl-8-nitro-1,2,3,4-tetrahydropyrrolo[1,2-a]pyrimidin-7-yl)-3-oxopropanoate] | 13.3 ± 4.88 | 13.7 ± 2.13 | 
20 | CCOC(=O)C(C(N)=O)c1c([N+](=O)[O-])c2n(c1-c1ccc(C)cc1)CC(C)(C)CN2 (stereo not shown) [Compound 4l, Ethyl3-amino-2-(3,3-dimethyl-8-nitro-6-(p-tolyl)-1,2,3,4-tetrahydropyrrolo[1,2-a]pyrimidin-7-yl)-3-oxopropanoate] | 14.2 ± 2.12 |  | 
21 | CCOC(=O)C(C(N)=O)c1c([N+](=O)[O-])c(NCc2ccco2)n(Cc2ccco2)c1-c1ccc(Cl)cc1 (stereo not shown) [Compound 4n, Ethyl3-amino-2-(2-(4-chlorophenyl)-1-(furan-2-ylmethyl)-5-((furan-2-ylmethyl)amino)-4-nitro-1H-pyrrol-3-yl)-3-oxopropanoate] |  | 21.9 ± 1.18 | 
22 | Cc1ccc(-c2c(C(C#N)C(N)=O)c([N+](=O)[O-])c(NCc3ccco3)n2Cc2ccco2)cc1 (stereo not shown) [Compound 4o, 2-cyano-2-(1-(furan-2-ylmethyl)-5-((furan-2-ylmethyl)amino)-4-nitro-2-(p-tolyl)-1H-pyrrol-3-yl)acetamide] | 19.8 ± 4.18 | 46.1 ± 6.43 | IC50 [2]: 69.2 ± 5.09 µM
23 | N#CC(C(N)=O)c1c([N+](=O)[O-])c(NCc2ccccc2)n(Cc2ccccc2)c1-c1ccc(Cl)cc1 (stereo not shown) [Compound 4p, 2-(1-benzyl-5-(benzylamino)-2-(4-chlorophenyl)-4-nitro-1H-pyrrol-3-yl)-2-cyanoacetamide] | 18.7 ± 3.52 |  | 
24 | CCOC(=O)C(C(N)=O)c1c([N+](=O)[O-])c(NCc2ccco2)n(Cc2ccco2)c1-c1ccc(C)cc1 (stereo not shown) [Compound 4q, Ethyl3-amino-2-(1-(furan-2-ylmethyl)-5-((furan-2-ylmethyl)amino)-4-nitro-2-(p-tolyl)-1H-pyrrol-3-yl)-3-oxopropanoate] | 17.8 ± 2.44 | 68.4 ± 6.35 | IC50 [2]: 18.6 ± 2.71 µM
25 | N#CC(C(N)=O)c1c([N+](=O)[O-])c(NCc2ccco2)n(Cc2ccco2)c1-c1ccc(Cl)cc1 (stereo not shown) [Compound 4s, 2-(2-(4-chlorophenyl)-1-(furan-2-ylmethyl)-5-((furan-2-ylmethyl)amino)-4-nitro-1H-pyrrol-3-yl)-2-cyanoacetamide] |  | 29.5 ± 3.87 | 
26 | CCOC(=O)C(C(N)=O)c1c([N+](=O)[O-])c(NCc2ccccc2)n(Cc2ccccc2)c1-c1ccc(C)cc1 (stereo not shown) [Compound 4t, Ethyl 3-amino-2-(1-benzyl-5-(benzylamino)-4-nitro-2-(p-tolyl)-1H-pyrrol-3-yl)-3-oxopropanoate] |  | 26.5 ± 5.12 | 
27 | N#CC(C(N)=O)c1c(-c2ccc(Cl)cc2)[nH]c(N)c1[N+](=O)[O-] (stereo not shown) [Compound 4w, 2-(5-amino-2-(4-chlorophenyl)-4-nitro-1H-pyrrol-3-yl)-2-cyanoacetamide] | 48.6 ± 4.53 | 33.5 ± 3.4 | 
28 | COc1ccc(-c2[nH]c(N)c([N+](=O)[O-])c2C(C#N)C(N)=O)cc1 (stereo not shown) [Compound 4x, 2-(5-amino-2-(4-methoxyphenyl)-4-nitro-1H-pyrrol-3-yl)-2-cyanoacetamide] | 47.7 ± 3.91 | 19.4 ± 3.91 | 
29 | N#CC(C(N)=O)c1c(-c2ccc3ccccc3c2)[nH]c(N)c1[N+](=O)[O-] (stereo not shown) [Compound 4y, 2-(5-amino-2-(naphthalen-2-yl)-4-nitro-1H-pyrrol-3-yl)-2-cyanoacetamide] |  | 19.1 ± 4.3 | 
30 | CSc1c([N+](=O)[O-])c(C(C#N)C(N)=O)c(-c2ccc(C)cc2)n1-c1ccc(C)c(C)c1 (stereo not shown) [Compound 4z, 2-cyano-2-(1-(3,4-dimethylphenyl)-5-(methylthio)-4-nitro-2-(p-tolyl)-1H-pyrrol-3-yl)acetamide] | 26.7 ± 5.14 |  | 
31 | COc1cccc2cc(C(=O)/C=C/c3ccc[n+](Cc4ccccc4Br)c3)oc12 [D] |  |  | IC50 ([3]; Fig. 2 traditional AChE inhibitors, read-out: IC50 against AChE): 0.027 µM
32 | Cc1nc2ccccc2c2cc[nH]c12 [G] |  |  | IC50 ([3]; Fig. 3, target per b17 AChE, read-out: IC50): 4.9 ± 0.9 µM
33 | Ethyl3-amino-2-(5-(methylthio)-4-nitro-1-phenyl-2-(p-tolyl)-1H-pyrrol-3-yl)-3-oxopropanoate [Compound 4ak] |  |  | AChE % inhibition at 50 µM [1, 4]: 20.79 ± 2.62%; BChE % inhibition at 50 µM [2, 4]: 25.56 ± 6.89%
